Measurements published in patent US9006181B2 (The Administrators of the Tulane Educational Fund, priority 2004, dated 2015).
Several values for one entry are separate records, joined by “and”; a condition that tells them apart may be missing. Equal entries are not always repeated. Entries after “also recorded” stand apart in the source; their conditions may differ. Where no end group is shown, it is not given here.

Key:
[1] = test system: TNF-α production by human proximal tubule cells; experiment: LC-induced TNF-α production by renal tubule cells, ELISA; format: cell-based
Procedure: TNF-α concentrations were determined by ELISA.
Varying doses of dexamethasone, PACAP38, MAPK kinase inhibitor (U0126), or PDTC were added to renal tubule cell cultures along with 50 μM LC to determine the effects on LC-induced TNF-α production, as measured by ELISA (FIG. 4).

[2] = test system: p38 MAPK in human proximal tubule cells; experiment: LC-induced p38 MAPK activation, ELISA for phosphorylated p38 MAPK; format: cell-based
Source text: Cytokine production may depend upon activation (phosphorylation) of p38 MAP kinase (stress-activated protein kinase 2a) isoforms.

[3] = test system: IL-6 production by human proximal tubule cells; experiment: LC-induced IL6 production by renal tubule cells, ELISA; format: cell-based; details: for magnitude of IL6 suppression compared with dexamethasone and SB202190: 10^−9 M PACAP vs 10^−9 M dexamethasone or 10 μM SB202190
Procedure: The overproduction of IL6 by neoplastic cells is strongly associated with the growth of multiple myeloma. Kawano M, et al. Nature. 332: 83 (1988). Varying doses of PACAP38, dexamethasone, or p38 MAPK kinase inhibitor (SB202190) were added to renal tubule cell cultures along with 50 μM LC to determine the effects on LC-induced IL6 production, as measured by ELISA (FIG. 11).

[4] = test system: NFκB p50 subunit in human proximal tubule cells; experiment: LC-induced activation of NFκB p50 subunit, ELISA; format: cell-based; details: dexamethasone 10^−7 M, PACAP38 10^−9 M; 50 μM LC, 3 days
Procedure: Human renal tubule cells in vitro were incubated with 50 μM LC for 3 days in the presence or absence of dexamethasone or PACAP38, and assayed by ELISA for activation of NFκB subunits (FIGS. 6 & 7). […] A human Raji cell line (B lymphocyte, Burkitt's lymphoma) was used for positive controls.

[5] = test system: ERK1/2 in human proximal tubule cells; experiment: LC-induced activation of ERK1/2, phospho-ERK1/2 ELISA; format: cell-based; details: dexamethasone 10^−7 M, PACAP38 10^−9 M; 50 μM LC, 3 days
Procedure: The ERK-type MAP kinases (ERK1 and ERK2 or, collectively, ERK1/2) are activated by phosphorylation. Evidence of such activation is visualized by antibody detection techniques, using antibody specific for the phosphorylated forms of ERK1/2. […] ERK1/2 activation was determined by ELISA.

[6] = test system: NCI-H929 human myeloma cell line; experiment: Myeloma cell growth, colorimetric BrdU incorporation; format: cell-based
Procedure: A human myeloma cell line (NCI-H929), which produced the lambda (λ) light chains used supra, were grown for 3 days in media containing non-inactivated media, and in the presence or absence of dexamethasone or PACAP38 (FIG. 8). Cell growth was determined by a colorimetric assay that measured the degree of 5-bromo-2-deoxyuridine (BrdU) incorporation by the cells. […] The therapeutic actions of dexamethasone in the treatment of multiple myeloma are attributed to stimulation of apoptosis.

[7] = test system: SV40-immortalized human renal proximal tubule cell cultures; experiment: Immunoglobulin light chain (LC)-induced damage of human renal tubule cells: morphology and survival
Procedure: SV40-immortalized human renal proximal tubule cell cultures were incubated with immunoglobulin light chains (LC) at 50 μM for 3 days (FIG. 2).

[8] = molecular target: T1, PAC1-R (type I PACAP receptor) (Homo sapiens, UniProt P41586); details: cited from earlier work
T1 sequence (P41586 21-468): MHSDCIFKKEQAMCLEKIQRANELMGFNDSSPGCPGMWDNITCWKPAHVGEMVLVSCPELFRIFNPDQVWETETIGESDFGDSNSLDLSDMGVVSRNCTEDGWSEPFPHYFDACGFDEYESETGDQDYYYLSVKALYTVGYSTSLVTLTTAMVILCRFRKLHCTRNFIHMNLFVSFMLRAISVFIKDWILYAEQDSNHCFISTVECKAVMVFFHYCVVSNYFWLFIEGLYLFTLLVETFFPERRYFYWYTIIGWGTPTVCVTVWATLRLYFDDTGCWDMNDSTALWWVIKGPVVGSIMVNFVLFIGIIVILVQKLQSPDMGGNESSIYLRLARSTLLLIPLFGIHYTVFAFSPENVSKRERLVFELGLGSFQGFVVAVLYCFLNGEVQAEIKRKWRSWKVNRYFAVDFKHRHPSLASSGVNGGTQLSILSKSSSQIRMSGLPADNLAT

S=C(S)N1CCCC1 [PDTC, pyrrolidine dithiocarbamate, reference compound]
suppression of LC-induced TNF-α production ([1]; PDTC 0.125 μM and 12.5 μM, both levels): completely suppressed

Oc1ccc(-c2nc(-c3ccncc3)c(-c3ccc(F)cc3)[nH]2)cc1 [SB202190, reference compound]
reduction of p38 MAPK activation ([2]; SB202190 10 μM): reduction produced by 10 μM SB202190

N#CC(=C(/N)Sc1ccccc1N)/C(C#N)=C(\N)Sc1ccccc1N [U0126, reference compound]
suppression of LC-induced TNF-α production ([1]; U0126 high dose): completely suppressed

C[C@@H]1C[C@H]2[C@@H]3CCC4=CC(=O)C=C[C@]4(C)[C@@]3(F)[C@@H](O)C[C@]2(C)[C@@]1(O)C(=O)CO [dexamethasone, reference compound]
concentration achieving maximal suppression of TNF-α production ([1]; 50 μM LC): 10^−5 M
concentration giving comparable magnitude of TNF-α suppression (dexamethasone vs PACAP38) ([1]; 50 μM LC): 10^−9 M
concentrations showing comparable activity in suppressing LC-induced TNF-α production (pair used in FIGS. 5-7) ([1]; 50 μM LC): 10^−7 M

PACAP: pituitary adenylate cyclase activating polypeptide; exists as PACAP38 and PACAP27; in Example 8 stands for PACAP38
magnitude of IL6 suppression compared with dexamethasone and SB202190 [3]: greater than that observed with either 10^−9 M dexamethasone or 10 μM SB202190

PACAP[1-38]-NH2 (HSDGIFTDSYSRYRKQMAVKKYLAAVLGKRYKQRVKNK-NH2) [PACAP38]
suppression of LC-induced NFκB p50 subunit activation [4]: significantly suppressed NFκB p50 activation; also recorded: suppressed by both dexamethasone and PACAP38
suppression of LC-induced ERK1/2 activation [5]: Neither dexamethasone nor PACAP38 suppressed ERK1/2 MAPK activation; also recorded: the difference was not statistically significant; also recorded: neither dexamethasone nor PACAP38 suppressed light chain-induced ERK1/2 activation significantly
concentration achieving maximal suppression of TNF-α production ([1]; 50 μM LC): 10^−9 M and 10^−7 M
concentration giving comparable magnitude of TNF-α suppression (dexamethasone vs PACAP38) ([1]; 50 μM LC): 10^−13 M
concentrations showing comparable activity in suppressing LC-induced TNF-α production (pair used in FIGS. 5-7) ([1]; 50 μM LC): 10^−9 M
suppression of LC-induced TNF-α production at a single concentration ([1]; PACAP38 10^−9 M): dramatic suppression
suppression of LC-induced TNF-α production ([1]; varying doses, 50 μM LC, 72 hours): suppressed by both dexamethasone and PACAP38 in a dose-dependent manner
concentration of maximal suppression of tumor cell growth ([6]; 3 days): 10^−7 M
lowest concentration at which tumor cell growth tended to be suppressed ([6]; 3 days): 10^−13 M
suppression of myeloma cell growth ([6]; 3 days, media with non-inactivated serum): suppressed growth of myeloma cells in cultures with approximately the same efficacy; also recorded: suppressed cell growth significantly; also recorded: dose-dependent suppression of myeloma cell growth at concentrations significantly lower than dexamethasone
growth suppressed at levels as low as ([6]; media containing non-inactivated serum): 10^−11 M
magnitude of IL6 suppression compared with dexamethasone and SB202190 [3]: significantly more effective at suppressing IL-6 production than dexamethasone
suppression of LC-stimulated IL6 production ([3]; varying doses, 50 μM LC): significant suppression; also recorded: suppressed by both dexamethasone and PACAP38 in a dose-dependent manner
effect on LC-induced cell damage (FIG. 2C) ([7]; PACAP38 10 nM, LC 50 μM, 3 days): dramatically attenuated
effect on LC-induced morphological changes (cell shrinkage, necrosis, loss of cell-cell adhesion) and survival ([7]; PACAP38 10^−9 M, LC 50 μM, 3 days): prevented the LC-induced changes; also recorded: dramatic preservation of renal tubule cell survival and morphology
cell morphology with compound alone ([7]; PACAP38 alone, 10^−9 M, no LC): did not cause any alteration of cell morphology; also recorded: did not alter the human renal tubule cell morphology
reduction of p38 MAPK activation compared with SB202190 and dexamethasone ([2]; 10 nM PACAP38 vs 10 μM SB202190): comparable to reduction produced by 10 μM SB202190; also recorded: comparable to that of the specific p38 MAPK inhibitor itself; also recorded: significantly more effective at comparable doses
reduction of LC-induced p38 MAPK activation ([2]; varying doses, 50 μM LC, 3 days): suppressed activation of p38 MAPK; also recorded: reduced significantly, and in a dose-dependent manner; also recorded: suppressed p38 MAPK activation in a dose-dependent manner

vasoactive intestinal peptide [VIP]
binding to PAC1-R [8]: does not bind
